In PubChem BioAssay AID2060622 (Molecular Pharmacology Branch, DTP, NCI, 2025):

Tested on: 242566-281-R-J2-PDC complex spheroid viability
Assay: Anticancer human tumor 242566-281-R-J2-PDC patient-derived pancreatic carcinoma cell line growth inhibition [CLK]
Conditions: for IC50: curve of first compound; for viability, T/C: stronger effect = lower value
Text: A high-throughput screen of multi-cell type tumor spheroids was designed to identify active combinations of […] and targeted small molecules. Complex spheroids include a stromal component modeled by human endothelial cells (HUVEC) and fibroblasts modeled by human mesenchymal stem cells (MSCs). The concentration ranges selected for each drug and investigational agent were based upon clinically achievable concentrations if the clinical Cmax of the agent was known.
Compounds. The drugs and investigational agents: cirtuvivint (SM08502; NSC835563), CC-671 (NSC850746), vemurafenib (NSC761431), tapotoclax (NSC804041), sotorasib (NSC818433), adagrasib (NSC831453), MRTX-1133 (NSC836407), BAY2416964 (NSC825713), copanlisib (NSC816437), inavolisib (NSC800729), abemaciclib (NSC768073), osimertinib (NSC779217), entinostat (NSC756642), eltanexor (KPT-8602, NSC794443), venetoclax (NSC766270), ceralasertib (NSC777638), bortezomib (NSC756655), olaparib (NSC753686), talazoparib (NSC767125), alisertib (NSC759677), peposertib (NSC802822), gemcitabine (NSC613327), 5-fluorouracil (NSC19893), SN-38 (NSC673596), oxaliplatin (NSC266046), paclitaxel (NSC125973), and doxorubicin (NSC123127), were obtained from the National Cancer Institute (NCI) Developmental Therapeutics Program Chemical Repository. The FDA-approved anticancer drug set is available from the Developmental Therapeutics Program at https://dtp.cancer.gov/organization/dscb/obtaining/available plates.htm. […] The stock solutions were prepared in dimethyl sulfoxide (DMSO, Sigma-Aldrich, St. Louis, MO, cat. D2650), except for the platinum complexes which were prepared in saline (Quality Biological, Gaithersburg, MD, cat. 114-055-101), at 800-fold the tested concentration and stored at -70 degrees C prior to their use. All drugs and investigational agents were tested over a range starting from a high concentration at or near the clinical Cmax and decreasing in half-log increments. If the clinical Cmax for an agent had not been determined, the highest concentration tested was 10 microM.
Cell Culture. All cells were maintained in an incubator at 37 degrees C and 5% CO2 with 95% humidity. The PDC lines were cultured according to standard operating procedures established by the NCI PDMR. Briefly, all PDCs were thawed and cultured in Matrigel-coated flasks prepared with a working solution of 1X Ham's F-12 nutrient mix, without supplementation (Invitrogen, Waltham, MA, cat. 11765054), 100 U/mL penicillin-streptomycin (Invitrogen, cat. 15140122), and 2.5% Matrigel (Corning Inc., Corning, NY, cat. 354248) for the first three passages. The 947758-054-R-J2-PDC line was cultured in 6B/Colon 1A media, which includes advanced DMEM/F-12 (Thermo Fisher Scientific, cat. 12634028), 10 mM HEPES (Thermo Fisher Scientific, cat. 15630080), 1X GlutaMAX supplement (Thermo Fisher Scientific, cat. 35050061), 0.1 mg/mL primocin (InvivoGen, cat. ant-pm-2), 10% defined fetal bovine serum, heat inactivated (HyClone Laboratories Inc., cat. SH30070.03HI), 1.25 mM N-Acetyl-L-cysteine (Sigma-Aldrich, cat. A9165), 10 mM nicotinamide (Sigma-Aldrich, cat. N0636), 1X B-27 supplement (Thermo Fisher Scientific, cat. 17504044), 1X N-2 supplement (Thermo Fisher Scientific, cat. 17502048), and 10 microM Y-27632 dihydrochloride (Tocris Bioscience, cat. 1254). The 876862-298-R-J1-PDC was cultured in 6E media, which includes all 6B/Colon 1A media components plus 50% L-WRN conditioned media (ATCC, cat. CRL-3276), 50 ng/mL recombinant human EGF recombinant protein (hEGF; Thermo Fisher Scientific, cat. PHG0311), 10 ng/mL recombinant human fibroblast growth factor 10 (hGFG-10; PeproTech, cat. 100-26), 1 ng/mL recombinant human fibroblast growth factor 2 (hFGF-2; PeproTech, cat. 100-18B), and 1 µM prostaglandin E2 (PGE2; Tocris, cat. 2296). The 227483-062-R1-J1-PDC line was cultured in Panc media, containing all 6E components except hFGF-2, with the addition of 500 nM SB-431542 (Selleckchem, cat. S1067) and 10 nM gastrin (Tocris, cat. 3006). […]

[1] = second compound 0.0316 µM, first compound 0.0316 µM
[2] = second compound 0.0316 µM, first compound 0.1 µM
[3] = second compound 0.1 µM, first compound 0.0316 µM
[4] = second compound 0.1 µM, first compound 0.1 µM
[5] = second compound 0.316 µM, first compound 0.0316 µM
[6] = second compound 0.316 µM, first compound 0.1 µM
[7] = second compound 1 µM, first compound 0.0316 µM
[8] = second compound 1 µM, first compound 0.1 µM
[9] = second compound 3.16 µM, first compound 0.0316 µM
[10] = second compound 3.16 µM, first compound 0.1 µM
[11] = second compound 10 µM, first compound 0.0316 µM
[12] = second compound 10 µM, first compound 0.1 µM
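Further: spheroids exposed to compounds for 7 days before readout.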
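Wherever viability, T/C is given: 100% = DMSO vehicle control wells.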

Molecule `CC(=O)O[C@H]1C(=O)[C@@]2(C)[C@H]([C@H](OC(=O)c3ccccc3)[C@]3(O)C[C@H](OC(=O)[C@H](O)[C@@H](NC(=O)c4ccccc4)c4ccccc4)C(C)=C1C3(C)C)[C@]1(OC(C)=O)CO[C@@H]1C[C@@H]2O` + CNC(=O)c1ccc(Nc2nc(OC3CCCC3)c3c(-c4ccc5nc(C)oc5c4)c[nH]c3n2)c(OC)c1 has an IC50 (second compound 0.0316 µM) of less than 31.6 nM, an IC50 (second compound 0.1 µM) greater than 10000 nM and an IC50 (second compound 0.316 µM) greater than 10000 nM. For the same molecule, the IC50 (second compound 1 µM) was greater than 10000 nM, the IC50 (second compound 3.16 µM) was less than 31.6 nM and the IC50 (second compound 10 µM) was less than 31.6 nM. The viability, T/C [1] was 61%, the viability, T/C [2] was 47.7% and the viability, T/C (second compound 0.0316 µM, first compound 0.316 µM) was 42%. For the same molecule, the viability, T/C (second compound 0.0316 µM, first compound 1 µM) was 41.7%, the viability, T/C (second compound 0.0316 µM, first compound 3.16 µM) was 46% and the viability, T/C (second compound 0.0316 µM, first compound 10 µM) was 72.3%. It also gave a viability, T/C [3] of 84.7%, a viability, T/C [4] of 66.2% and a viability, T/C (second compound 0.1 µM, first compound 0.316 µM) of 53.2%. For the same molecule, the viability, T/C (second compound 0.1 µM, first compound 1 µM) was 61.9%, the viability, T/C (second compound 0.1 µM, first compound 3.16 µM) was 70.7% and the viability, T/C (second compound 0.1 µM, first compound 10 µM) was 108%. It also gave a viability, T/C [5] of 91.7%, a viability, T/C [6] of 95% and a viability, T/C (second compound 0.316 µM, first compound 0.316 µM) of 86.2%. It also gave a viability, T/C (second compound 0.316 µM, first compound 1 µM) of 92%, a viability, T/C (second compound 0.316 µM, first compound 3.16 µM) of 115% and a viability, T/C (second compound 0.316 µM, first compound 10 µM) of 94.6%. For the same molecule, the viability, T/C [7] was 62.3%, the viability, T/C [8] was 56.6% and the viability, T/C (second compound 1 µM, first compound 0.316 µM) was 52.2%. It also gave a viability, T/C (second compound 1 µM, first compound 1 µM) of 51.6%, a viability, T/C (second compound 1 µM, first compound 3.16 µM) of 50.7% and a viability, T/C (second compound 1 µM, first compound 10 µM) of 56.2%. The viability, T/C [9] was 51%, the viability, T/C [10] was 40.9% and the viability, T/C (second compound 3.16 µM, first compound 0.316 µM) was 43.1%. It also gave a viability, T/C (second compound 3.16 µM, first compound 1 µM) of 45.2%, a viability, T/C (second compound 3.16 µM, first compound 3.16 µM) of 46.3% and a viability, T/C (second compound 3.16 µM, first compound 10 µM) of 43%. For the same molecule, the viability, T/C [11] was 43%, the viability, T/C [12] was 36.4% and the viability, T/C (second compound 10 µM, first compound 0.316 µM) was 43.7%. It also gave a viability, T/C (second compound 10 µM, first compound 1 µM) of 46.2%, a viability, T/C (second compound 10 µM, first compound 3.16 µM) of 43.4% and a viability, T/C (second compound 10 µM, first compound 10 µM) of 44.8%.
Molecule `Cn1ncnc1[C@H]1c2n[nH]c(=O)c3cc(F)cc(c23)N[C@@H]1c1ccc(F)cc1` + CNC(=O)c1ccc(Nc2nc(OC3CCCC3)c3c(-c4ccc5nc(C)oc5c4)c[nH]c3n2)c(OC)c1 has an IC50 (second compound 0.0316 µM) greater than 100 nM, an IC50 (second compound 0.1 µM) greater than 100 nM and an IC50 (second compound 0.316 µM) greater than 100 nM. For the same molecule, the IC50 (second compound 1 µM) was greater than 100 nM, the IC50 (second compound 3.16 µM) was 31.1 nM and the IC50 (second compound 10 µM) was 2.02 nM. For the same molecule, the viability, T/C (second compound 0.0316 µM, first compound 0.000316 µM) was 126%, the viability, T/C (second compound 0.0316 µM, first compound 0.001 µM) was 105% and the viability, T/C (second compound 0.0316 µM, first compound 0.00316 µM) was 104%. For the same molecule, the viability, T/C (second compound 0.0316 µM, first compound 0.01 µM) was 127%, the viability, T/C [1] was 91.8% and the viability, T/C [2] was 98.8%. For the same molecule, the viability, T/C (second compound 0.1 µM, first compound 0.000316 µM) was 100%, the viability, T/C (second compound 0.1 µM, first compound 0.001 µM) was 123% and the viability, T/C (second compound 0.1 µM, first compound 0.00316 µM) was 84.1%. It also gave a viability, T/C (second compound 0.1 µM, first compound 0.01 µM) of 92.3%, a viability, T/C [3] of 98.5% and a viability, T/C [4] of 87.8%. The viability, T/C (second compound 0.316 µM, first compound 0.000316 µM) was 104%, the viability, T/C (second compound 0.316 µM, first compound 0.001 µM) was 86.3% and the viability, T/C (second compound 0.316 µM, first compound 0.00316 µM) was 85.1%. For the same molecule, the viability, T/C (second compound 0.316 µM, first compound 0.01 µM) was 89.9%, the viability, T/C [5] was 79.9% and the viability, T/C [6] was 76.5%. For the same molecule, the viability, T/C (second compound 1 µM, first compound 0.000316 µM) was 70.9%, the viability, T/C (second compound 1 µM, first compound 0.001 µM) was 67.2% and the viability, T/C (second compound 1 µM, first compound 0.00316 µM) was 62.5%. For the same molecule, the viability, T/C (second compound 1 µM, first compound 0.01 µM) was 64.8%, the viability, T/C [7] was 56.1% and the viability, T/C [8] was 52.4%. The viability, T/C (second compound 3.16 µM, first compound 0.000316 µM) was 55.5%, the viability, T/C (second compound 3.16 µM, first compound 0.001 µM) was 52% and the viability, T/C (second compound 3.16 µM, first compound 0.00316 µM) was 49.6%. It also gave a viability, T/C (second compound 3.16 µM, first compound 0.01 µM) of 47.6%, a viability, T/C [9] of 56.2% and a viability, T/C [10] of 47%. It also gave a viability, T/C (second compound 10 µM, first compound 0.000316 µM) of 50.2%, a viability, T/C (second compound 10 µM, first compound 0.001 µM) of 53.8% and a viability, T/C (second compound 10 µM, first compound 0.00316 µM) of 45.2%. For the same molecule, the viability, T/C (second compound 10 µM, first compound 0.01 µM) was 49.8%, the viability, T/C [11] was 50.3% and the viability, T/C [12] was 49.1%.
